In patent US20100249093A1, “Substituted Heteroarylpiperidine Derivatives As Melanocortin-4 Receptor Modulators” (SANTHERA PHARMACEUTICALS (SCHWEIZ) AG, priority 2007, published 2010):

Experiments:
[1] = molecular target: T1, human melanocortin-4 receptor (MC-4R) (Homo sapiens, UniProt P32245); assay: Functional assay: agonistic activity, cAMP production in membrane preparations compared with NDP-alpha-MSH, fluorescence polarization; format: biochemical; conditions: for Emax: cAMP produced compared to stimulation with NDP-alpha-MSH, read-out: % activation functional assay; for EC50: cAMP production, membrane preparations from HEK293 cells expressing human MC-4R, read-out: hMC-4R functional assay EC50
T1 construct: expressed in transfected cells; host or cells: HEK293

[2] = molecular target: T1, human melanocortin-4 receptor (MC-4R); assay: Membrane binding assay: competition with fluorescence labeled NDP-alpha-MSH, fluorescence polarization; conditions: HEK293 cell membrane preparations expressing human MC-4R, read-out: hMC-4R binding assay IC50

T1 sequence (P32245 whole entry): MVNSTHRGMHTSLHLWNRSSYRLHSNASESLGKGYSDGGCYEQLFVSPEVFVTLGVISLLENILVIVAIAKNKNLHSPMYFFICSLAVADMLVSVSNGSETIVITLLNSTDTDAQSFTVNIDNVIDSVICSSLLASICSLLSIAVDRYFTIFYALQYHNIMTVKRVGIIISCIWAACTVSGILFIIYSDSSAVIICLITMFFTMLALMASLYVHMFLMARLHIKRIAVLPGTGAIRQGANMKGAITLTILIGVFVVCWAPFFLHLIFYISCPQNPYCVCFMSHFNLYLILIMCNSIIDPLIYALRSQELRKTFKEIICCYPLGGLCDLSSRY

| Emax [1] [%] | IC50 [2] [nM] | EC50 [1] [nM] | SMILES |
| --- | --- | --- | --- |
| 0 | ≤ 100 | – | Cc1ccc(C2CCN(C(=O)[C@@H](Cc3ccc(Cl)cc3Cl)NC(=O)N3CCCC3)CC2)c(NCCN2CCCC2)n1 [Example 1] |
| 0 | ≤ 100 | – | Cc1ccc(C2CCN(C(=O)[C@@H](Cc3ccc(Cl)cc3Cl)NC(=O)N3CCCC3)CC2)c(N(C)CCN2CCCC2)n1 [Example 2] |
| 0 | 100 to 1000 | – | Cc1cnc(N(C)CCN2CCCC2)c(C2CCN(C(=O)[C@@H](Cc3ccc(Cl)cc3Cl)NC(=O)N3CCCC3)CC2)c1 [Example 3] |
| 0 | ≤ 100 | – | Cc1ccc(C2CCN(C(=O)[C@@H](Cc3ccc(Cl)cc3Cl)NC(=O)N3CCCC3)CC2)c(N2CCN(C)CC2)n1 [Example 4] |
| 0 | ≤ 100 | – | O=C(N[C@H](Cc1ccc(Cl)cc1Cl)C(=O)N1CCC(c2cccnc2OCCN2CCCC2)CC1)N1CCCC1 [Example 5] |
| 0 | ≤ 100 | – | Cc1ccc(C2CCN(C(=O)[C@@H](Cc3ccc(Cl)cc3Cl)NC(=O)N3CCCC3)CC2)c(OCCN2CCCC2)n1 [Example 6] |
| 0 | ≤ 100 | – | CC[C@@H](CN1CCCC1)Oc1ncccc1C1CCN(C(=O)[C@@H](Cc2ccc(Cl)cc2Cl)NC(=O)N2CCCC2)CC1 [Example 7] |
| 0 | ≤ 100 | – | CC[C@@H](CN1CCCC1)Oc1ncc(C)cc1C1CCN(C(=O)[C@@H](Cc2ccc(Cl)cc2Cl)NC(=O)N2CCCC2)CC1 [Example 9] |
| 0 | ≤ 100 | – | CC[C@@H](CN1CCCC1)Oc1cnccc1C1CCN(C(=O)[C@@H](Cc2ccc(Cl)cc2Cl)NC(=O)N2CCCC2)CC1 [Example 11] |
| 0 | ≤ 100 | – | CC[C@@H](CN1CCCC1)Oc1ccncc1C1CCN(C(=O)[C@@H](Cc2ccc(Cl)cc2Cl)NC(=O)N2CCCC2)CC1 [Example 12] |
| 0 | 100 to 1000 | – | CC[C@H](COc1ccncc1C1CCN(C(=O)[C@@H](Cc2ccc(Cl)cc2Cl)NC(=O)N2CCCC2)CC1)N(C)C [Example 13] |
| 0 | 100 to 1000 | – | O=C(N[C@H](Cc1ccc(Cl)cc1Cl)C(=O)N1CCC(c2ncccc2OCCN2CCCC2)CC1)N1CCCC1 [Example 14] |
| 0 | ≤ 100 | – | C[C@@H](CN(C)C)Oc1cccnc1C1CCN(C(=O)[C@@H](Cc2ccc(Cl)cc2Cl)NC(=O)N2CCCC2)CC1 [Example 15] |
| 0 | ≤ 100 | – | C[C@@H](CN1CCCC1)Oc1cccnc1C1CCN(C(=O)[C@@H](Cc2ccc(Cl)cc2Cl)NC(=O)N2CCCC2)CC1 [Example 16] |
| 0 | ≤ 100 | – | CC[C@@H](CN1CCCC1)Oc1cccnc1C1CCN(C(=O)[C@@H](Cc2ccc(Cl)cc2Cl)NC(=O)N2CCCC2)CC1 [Example 17] |
| 0 | ≤ 100 | – | CC[C@H](COc1cccnc1C1CCN(C(=O)[C@@H](Cc2ccc(Cl)cc2Cl)NC(=O)N2CCCC2)CC1)N(C)C [Example 18] |
| 0 | ≤ 100 | – | CN(C)C(C)(C)COc1cccnc1C1CCN(C(=O)[C@@H](Cc2ccc(Cl)cc2Cl)NC(=O)N2CCCC2)CC1 [Example 20] |
| 0 | ≤ 100 | – | CN1CCC[C@H](Oc2cccnc2C2CCN(C(=O)[C@@H](Cc3ccc(Cl)cc3Cl)NC(=O)N3CCCC3)CC2)C1 [Example 21] |
| 0 | ≤ 100 | – | C[C@H](Oc1cccnc1C1CCN(C(=O)[C@@H](Cc2ccc(Cl)cc2Cl)NC(=O)N2CCCC2)CC1)[C@@H](C)N(C)C [Example 22] |
| 0 | 100 to 1000 | – | CN1CCN(c2cccnc2C2CCN(C(=O)[C@@H](Cc3ccc(Cl)cc3Cl)NC(=O)N3CCCC3)CC2)CC1 [Example 23] |
| 0 | ≤ 100 | – | CC[C@H](COc1cc(C)cnc1C1CCN(C(=O)[C@@H](Cc2ccc(Cl)cc2Cl)NC(=O)N2CCCC2)CC1)N1CCCC1 [Example 24] |
| 0 | ≤ 100 | – | C[C@H](COc1cccnc1C1CCN(C(=O)[C@@H](Cc2ccc(Cl)cc2Cl)NC(=O)N2CCCC2)CC1)N(C)C [Example 25] |
| 0 | ≤ 100 | – | CC[C@H](COc1cc(C)cnc1C1CCN(C(=O)[C@@H](Cc2ccc(Cl)cc2Cl)NC(=O)N2CCCC2)CC1)N(C)C [Example 27] |
| 0 | 100 to 1000 | – | CN1CCN(Cc2cccnc2C2CCN(C(=O)[C@@H](Cc3ccc(Cl)cc3Cl)NC(=O)N3CCCC3)CC2)CC1 [Example 28] |
| -8 | ≤ 100 | – | CC(C)[C@H](COc1cccnc1C1CCN(C(=O)[C@@H](Cc2ccc(Cl)cc2Cl)NC(=O)N2CCCC2)CC1)N(C)C [Example 30] |
| -3 | ≤ 100 | – | CC[C@@H](COc1cccnc1C1CCN(C(=O)[C@@H](Cc2ccc(Cl)cc2Cl)NC(=O)N2CCCC2)CC1)N1CCCC1 [Example 31] |

| Emax [1] [%] | IC50 [2] [nM] | EC50 [1] [nM] | SMILES |
| --- | --- | --- | --- |
| 36 | ≤ 100 | > 1000 | CC[C@@H](CN(C)C)Oc1cccnc1C1CCN(C(=O)[C@@H](Cc2ccc(Cl)cc2Cl)NC(=O)N2CCCC2)CC1 [Example 32] |
| 0 | 100 to 1000 | – | CC[C@@H](COc1cccnc1C1CCN(C(=O)[C@@H](Cc2ccc(Cl)cc2Cl)NC(=O)N2CCCC2)CC1)N(C)C [Example 33] |
| -3 | > 1000 | – | CC[C@H](CN(C)C)Oc1cccnc1C1CCN(C(=O)[C@@H](Cc2ccc(Cl)cc2Cl)NC(=O)N2CCCC2)CC1 [Example 34] |
| 7 | 100 to 1000 | – | CC[C@H](COc1c(C)ccnc1C1CCN(C(=O)[C@@H](Cc2ccc(Cl)cc2Cl)NC(=O)N2CCCC2)CC1)N(C)C [Example 35] |
| 8 | ≤ 100 | – | CC[C@H](COc1cc(OC)cnc1C1CCN(C(=O)[C@@H](Cc2ccc(Cl)cc2Cl)NC(=O)N2CCCC2)CC1)N(C)C [Example 36] |
| -2 | 100 to 1000 | – | CN1CCN(CCOc2cccnc2C2CCN(C(=O)[C@@H](Cc3ccc(Cl)cc3Cl)NC(=O)N3CCCC3)CC2)CC1 [Example 37] |
| -5 | 100 to 1000 | – | CN1CCC(Oc2cccnc2C2CCN(C(=O)[C@@H](Cc3ccc(Cl)cc3Cl)NC(=O)N3CCCC3)CC2)CC1 [Example 38] |
| -13 | ≤ 100 | – | CN1CCN(Cc2cc(Cl)cnc2C2CCN(C(=O)[C@@H](Cc3ccc(Cl)cc3Cl)NC(=O)N3CCCC3)CC2)CC1 [Example 39] |
| -11 | ≤ 100 | – | CC[C@H](COc1cc(Cl)cnc1C1CCN(C(=O)[C@@H](Cc2ccc(Cl)cc2Cl)NC(=O)N2CCCC2)CC1)N1CCCC1 [Example 40] |
| -1 | 100 to 1000 | – | CN1CC(Oc2cccnc2C2CCN(C(=O)[C@@H](Cc3ccc(Cl)cc3Cl)NC(=O)N3CCCC3)CC2)C1 [Example 41] |
| -1 | 100 to 1000 | – | CN1CC[C@H](Oc2cccnc2C2CCN(C(=O)[C@@H](Cc3ccc(Cl)cc3Cl)NC(=O)N3CCCC3)CC2)C1 [Example 42] |
| 0 | 100 to 1000 | – | CN1CC[C@@H](Oc2cccnc2C2CCN(C(=O)[C@@H](Cc3ccc(Cl)cc3Cl)NC(=O)N3CCCC3)CC2)C1 [Example 43] |
| -4 | 100 to 1000 | – | CN1CCC[C@H]1COc1cccnc1C1CCN(C(=O)[C@@H](Cc2ccc(Cl)cc2Cl)NC(=O)N2CCCC2)CC1 [Example 44] |
| -27 | ≤ 100 | 100 to 1000 | CN1CCC[C@@H]1COc1cccnc1C1CCN(C(=O)[C@@H](Cc2ccc(Cl)cc2Cl)NC(=O)N2CCCC2)CC1 [Example 45] |
| -13 | > 1000 | – | COC[C@H](CN(C)C)Oc1cccnc1C1CCN(C(=O)[C@@H](Cc2ccc(Cl)cc2Cl)NC(=O)N2CCCC2)CC1 [Example 46] |
| -36 | ≤ 100 | 100 to 1000 | COC[C@@H](CN(C)C)Oc1cccnc1C1CCN(C(=O)[C@@H](Cc2ccc(Cl)cc2Cl)NC(=O)N2CCCC2)CC1 [Example 47] |
| 0 | ≤ 100 | – | CN1CCOC[C@H](Oc2cccnc2C2CCN(C(=O)[C@@H](Cc3ccc(Cl)cc3Cl)NC(=O)N3CCCC3)CC2)C1 [Example 48] |
| -3 | 100 to 1000 | – | CN1CCO[C@H](COc2cccnc2C2CCN(C(=O)[C@@H](Cc3ccc(Cl)cc3Cl)NC(=O)N3CCCC3)CC2)C1 [Example 49] |
| 0 | ≤ 100 | – | CC[C@H]1CN(C)CCN1Cc1cccnc1C1CCN(C(=O)[C@@H](Cc2ccc(Cl)cc2Cl)NC(=O)N2CCCC2)CC1 [Example 50] |
| 0 | 100 to 1000 | – | CN1CC[C@H](COc2cccnc2C2CCN(C(=O)[C@@H](Cc3ccc(Cl)cc3Cl)NC(=O)N3CCCC3)CC2)C1 [Example 51] |
| 4 | 100 to 1000 | – | CN1CCOC[C@@H](Oc2cccnc2C2CCN(C(=O)[C@@H](Cc3ccc(Cl)cc3Cl)NC(=O)N3CCCC3)CC2)C1 [Example 52] |
| 1 | > 1000 | – | CN1CCO[C@@H](COc2cccnc2C2CCN(C(=O)[C@@H](Cc3ccc(Cl)cc3Cl)NC(=O)N3CCCC3)CC2)C1 [Example 53] |
| 10 | 100 to 1000 | – | CN1CC[C@@H](COc2cccnc2C2CCN(C(=O)[C@@H](Cc3ccc(Cl)cc3Cl)NC(=O)N3CCCC3)CC2)C1 [Example 54] |
| 2 | 100 to 1000 | – | CN1CCOC[C@@H]1COc1cccnc1C1CCN(C(=O)[C@@H](Cc2ccc(Cl)cc2Cl)NC(=O)N2CCCC2)CC1 [Example 55] |
| -5 | ≤ 100 | – | CN1CCN(C)CC(Oc2cccnc2C2CCN(C(=O)[C@@H](Cc3ccc(Cl)cc3Cl)NC(=O)N3CCCC3)CC2)C1 [Example 56] |

| SMILES | Emax [1] [%] | IC50 [2] [nM] | EC50 [1] [nM] |
| --- | --- | --- | --- |
| O=C(N[C@H](Cc1ccc(Cl)cc1Cl)C(=O)N1CCC(c2cccnc2O[C@H]2CN3CCC2CC3)CC1)N1CCCC1 [Example 10] | 0 | 100 to 1000 | – |
| O=C(N[C@H](Cc1ccc(Cl)cc1Cl)C(=O)N1CCC(c2ncccc2O[C@H]2CN3CCC2CC3)CC1)N1CCCC1 [Example 26] | 0 | 100 to 1000 | – |
| O=C(N[C@H](Cc1ccc(Cl)cc1Cl)C(=O)N1CCC(c2ncccc2OC2CN3CCC2CC3)CC1)N1CCCC1 (stereo partly drawn) [Example 29] | 0 | 100 to 1000 | – |
